Values quoted from earlier work as cited in PMC4021529 (British Journal of Cancer, 2014).
Where two headings read alike, the source gives them in different places.

Tested on: advanced solid tumours
Conditions: phase I trial, advanced solid malignancies, cited from earlier work

## C[C@@H](Oc1cc(-n2cnc3ccc(CN4CCN(C)CC4)cc32)sc1C(N)=O)c1ccccc1C(F)(F)F [GSK461364]
Ref Olmos et al, 2011
  objective responses: no objective responses

## COc1ccc(S(=O)(=O)N(C(C)=O)c2ccccc2/C=C/c2cc[n+]([O-])cc2)cc1 [HMN-214]
Ref Garland et al, 2006
  objective responses: no objective responses
